Here are results for one compound from patent publication US20130261188A1, “Ibuprofen Solid Oral Dosage Composition Comprising a Methacrylic Acid Copolymer” (TEIKOKU PHARMA USA, INC., priority 2012, published 2013).

Converted amounts (≈) assume the structure as drawn.

The series can be described thus: Solubility of ibuprofen in simulated salivary fluid (excess ibuprofen, sonication, centrifugation, HPLC). The series is classed as physicochemical. Particulars: fassgf or other biorelevant, thermodynamic from solid, simulated salivary fluid (19 mM phosphate buffer, 150 mM sodium chloride, pH 6.75), sonicated approximately 1 hour, centrifuged. As to the method: In addition, solubility of ibuprofen was evaluated by adding an excess of ibuprofen to simulated salivary fluid and sonicating for approximately 1 hour. The solution was then centrifuged and injected onto the HPLC.

Broadly, the solubility is the dissolved amount per volume that the medium holds. Read a high solubility as a readily soluble substance. `CC(C)Cc1ccc(C(C)C(=O)O)cc1` (stereo not shown) [ibuprofen, 2-(p-isobutylphenyl)propionic acid] showed a solubility of 1800 µg/mL (≈ 8.73 mM).
